In publication PMC5068747, “Using C. elegans Forward and Reverse Genetics to Identify New Compounds with Anthelmintic Activity” (PLoS Neglected Tropical Diseases, 2016):
Like-named read-outs stand apart in the source and are kept apart here. Each block holds one compound with its values, some of them ahead of it.

Key:
[1] = test system: S. cerevisiae yeast strain BY4743; assay: Yeast growth rate (OD600) dose titration; type: cell-based; settings: BY4743, YPD, growth rate reduced by 50%
Method: The S. cerevisiae yeast strain BY4743 (MATa/α his3Δ1/his3Δ1 leu2Δ0/leu2Δ0 LYS2/lys2Δ0 met15Δ0/MET15 ura3Δ0/ura3Δ0) was used for all yeast experiments and was grown using yeast extract peptone dextrose (YPD) media at pH 7 [52]. BY4743 was grown overnight to initial log phase and was then grown with the compound identified in the C. elegans assay. The growth rate was quantified by continuously monitoring the optical density of the liquid yeast growth at OD600. The compound was screened in a dose-titration in YPD as described. The IC50 was the concentration required to reduce the growth rate or Average G value by 50% compared to a vehicle control (2% DMSO).

[2] = test system: C. elegans CB193 (unc-29(e193), levamisole resistant); assay: IC50 on levamisole resistant C. elegans strain; type: in vivo, Caenorhabditis elegans; settings: 5 days exposure, 2 L4 per well, three biological replicates
[3] = test system: C. elegans DA1316 (avr-14(ad1302); avr-15(vu227); glc-1(pk54), ivermectin resistant); assay: IC50 on ivermectin resistant C. elegans strain; type: in vivo, Caenorhabditis elegans; settings: 5 days exposure, 2 L4 per well, three biological replicates
[4] = test system: C. elegans CB3474 (ben-1(e1880), benomyl resistant); assay: IC50 on benzimidazole resistant C. elegans strain; type: in vivo, Caenorhabditis elegans; settings: 5 days exposure, 2 L4 per well, three biological replicates
[5] = test system: C. elegans RB2119 (acr-23(ok2804), monepantel-resistant); assay: IC50 on amino-acetonitrile resistant C. elegans strain; type: in vivo, Caenorhabditis elegans; settings: 5 days exposure, 2 L4 per well, three biological replicates, read-out: IC50, strain RB2119 (amino-acetonitriles)
[6] = test system: Human embryonic kidney (HEK293) cells; assay: HEK293 viability, MTT colorimetric assay; type: cell-based; settings: read-out: Mammalian IC50
Method: Potential anthelmintic compounds identified from primary screening were further tested against mammalian cells and yeast to determine whether they had deleterious effects in those organisms. Human embryonic kidney (HEK293) cells were grown in Dulbecco’s Modified Eagle’s Medium (DMEM; Sigma) containing 5% fetal bovine serum (FBS; Sigma) in 96-well plates tissue culture plates. Compounds were added 24h post-plating at 10, 30, 100, or 300 μM final concentrations. Dimethyl sulfoxide (DMSO) was used as a negative control at 0.1%. Cells were treated for 24 or 48 hours, after which time viability was assessed using a 3-(4,5-dimethylthiazol-2-yl)-2,5-diphenyltetrazolium bromide (MTT) colorimetric assay. Percent viability was determined by comparing treatment values to DMSO control values.

[7] = test system: C. elegans VC2010 (wild type); assay: WormScan screen of C. elegans growth, fecundity, motility and mortality; type: in vivo, Caenorhabditis elegans; set-up: normalized WormScan score: dose or concentration left out as unconfirmed
Method: (§1) All compound libraries were stored in 96-well plates, with 80 drugs per plate (columns 1 and 12 left empty). A BioGrid BG600 pinning robot (Digilab / BioRobotics) was used for compound transfer. The robot uses a 96-pin tool (0.7 mm dia.) to transfer a nominal volume of 340 nL of compound. For retesting, compounds were hand pinned from the original library plates to assay plates using a single 0.7 mm dia. pin. The assay plates were 96-well clear flat-bottom microplates containing 2% χ1666 E.coli bacteria in 0.5X Liquid Nematode Growth Media (LNGM) plus cholesterol (Bacteria were mass-grown in rich media, and harvested by centrifugation to produce a thick paste of bacterial cells that was kept frozen at -20°C. Cells were resuspended at 2% W/V in 0.5X LNGM to produce liquid worm food). Using a COPAS Biosort (Union Biometrica), two L4 to young adult stage VC2010 worms were added to each well of the plate in a final volume of 45 μL. After five days of exposure to the compounds, the plates were scanned and the data analyzed. A five day time period was chosen to be able to observe effects over all stages of the life cycle and through at least one round of replication. The initial proof-of-principle primary screen was performed manually using a dissecting microscope. Phenotypes scored included decreased motility, reduced brood size, and/or death as described previously. For high throughput screening of the Chembridge and Maybridge compound libraries we used the program WormScan, which was adapted for screening 96-well flat-bottom LNGM plates. Using WormScan it was possible to screen four 96-well plates at a time. Plates were scanned twice, at a resolution of 1200 dots per inch, 16-bit grayscale, producing a jpeg image. The light intensity produced by the scanner was sufficient to cause negative phototaxis equivalent to a physical stimulus for mortality determination. The time required to scan four 96-well plates using an Epson Perfection V700 Photo Scanner was less than ten minutes. The time to screen a single plate was less than 1.2 minutes, with less than ten seconds between scans.
(§2) WormScan was used to screen for the same phenotypes as in the manual screen (reduced brood size, reduced behavior/motility response and increased mortality). Two sequential scans for each 96-well plate were aligned to a reference region of interest (ROI). Image analysis was based on a difference image score calculated for each ROI. The difference image score (WormScan score) was normalized using a “percent of control” method to derive a normalized WormScan score. […] Wild-type growth in 1% DMSO (Fig 1A) results in a normalized WormScan score of 100. Exposure to 50 nM ivermectin gives a score of 0 (Fig 1C), and complete absence of worms gives a score of 0 (Fig 1D). For the primary screen the WormScan score was calculated using custom macro scripts written for Fiji. For secondary screening and any subsequent studies the WormScan score was calculated using a standalone Java program (See supplemental). Probit regression of mortality was calculated using Mathematica 8.0.

[8] = test system: C. elegans VC3635 (pink-1 gk3615, D19 resistant); assay: IC50 on CID 2747322 resistant C. elegans strain VC3635; type: in vivo, Caenorhabditis elegans; settings: 5 days exposure, 2 L4 per well, three biological replicates
Method: as §1, §2
(§3) A standard ethyl methanesulfonate (EMS) mutagenesis protocol was carried out using VC2010 in order to generate mutants resistant to CID 2747322 exposure. First larval stage (L1) F2 progeny of mutagenized P0s were exposed to CID 2747322 at 200 μM in liquid worm food in 24-well tissue culture plates for five days at room temperature, and two independently isolated resistant lines (VC3614 and VC3615) were identified. […]

[9] = test system: C. elegans VC3631 (mev-1 gk3613, D19 resistant); assay: IC50 on CID 2747322 resistant C. elegans strain VC3631; type: in vivo, Caenorhabditis elegans; settings: 5 days exposure, 2 L4 per well, three biological replicates
Method: as §1, §2, §3

C. elegans VC2010 [10] = assay: Manual inspection of growth, brood size, developmental stage and recovery of C. elegans in drug; type: in vivo, Caenorhabditis elegans; settings: L1s removed from the drug
Method: WormScan is a powerful tool to identify compounds with potential effects on the nematode, but it is still necessary to do manual inspection of wells with few animals to determine details of growth, behavior and fecundity. Wild-type worms grown in 90 μM CID 2747322 have brood sizes reduced by 97%. […] All current classes of anthelmintic have greater specificity towards certain life-stages. It is interesting that when removed from the drug L1s will recover and develop, and generally become fertile adults (See S3 Fig).
Supplementary file pntd.0005058.s002.tiff: S2 Fig Developmental stage of inhibition in C. elegans after CID 2747322 exposure. Ten VC2010 L1 stage C. elegans were sorted into a DMSO control well or 90 μM of CID 2747322. Nematodes were removed from the DMSO control or CID 2747322 after 24/48/72 hours and allowed to recover for 30 minutes on standard agar plates. (TIFF) Click here for additional data file.
Supplementary file pntd.0005058.s003.tiff: S3 Fig Development of C. elegans after removel from CID 2747322. Greater than 50 VC2010 L1 stage C. elegans were sorted into a DMSO control well or 90 μM of CID 2747322. Nematodes were removed from DMSO control or CID 2747322 after 2 days of exposure and left to recovery for 24/48/72 hours. (TIFF) Click here for additional data file.

C. elegans VC2010 [11] = assay: Manual phenotyping pilot screen of 3,584 known compounds (CCBN library); type: in vivo, Caenorhabditis elegans; settings: dissecting microscope, positively confirmed drugs of CCBN library
A. suum complex II = test system: A. suum complex II; set-up: method as in PMID 26198225; settings: cited from earlier work
porcine complex II = test system: porcine complex II; set-up: method as in PMID 26198225; settings: cited from earlier work
nematodes = test system: nematodes; set-up: method as in PMID 10924467; settings: cited from earlier work
[12] = 5 days exposure, 2 L4 per well, three biological replicates, read-out: IC50, strain VC2010 (wild type)
[13] = C. elegans, 5 days exposure, read-out: Nematode IC50
[14] = Caenorhabditis elegans, 120 h, 5 days exposure, 2 L4 per well, three biological replicates, read-out: IC50, strain VC2010 (wild type)
[15] = Caenorhabditis elegans, 120 h, read-out: Nematode IC50

Compound: FC(F)(F)c1cc(NCc2ccccc2)nc(-c2ccccc2)n1 [CID 796072]
- IC50 [1]: > 1000 µM
- IC50 [2]: 3 µM
- IC50 [3]: 8 µM
- IC50 [4]: 2 µM
- IC50 [5]: 2 µM
- IC50 [6]: 28 µM
- IC50 [7, 12]: 7 µM
- greater sensitivity in C. elegans than in other organisms (nematode index) ([7]; C. elegans versus mammalian cells, Table 1): four-fold
- IC50 [7, 13]: 7 µM
- IC50 [8]: 9 µM
- IC50 [9]: 11 µM

- IC50 ([2]; Caenorhabditis elegans, 120 h): > 250 µM
- IC50 ([3]; Caenorhabditis elegans, 120 h): 8 µM
- IC50 ([4]; Caenorhabditis elegans, 120 h): 2 µM
- IC50 ([5]; Caenorhabditis elegans, 120 h): 4 µM
- IC50 ([8]; Caenorhabditis elegans, 120 h): 6 µM
- IC50 ([9]; Caenorhabditis elegans, 120 h): 10 µM
Compound: c1ccc([C@H]2CN3CCSC3=N2)cc1 [Levamisole]
- IC50 [7, 14]: 4 µM

- IC50 [1]: > 1000 µM
Compound: Cc1nn(S(=O)(=O)c2ccccc2)c(C)c1Oc1ccc(Cl)cc1 [CID 2745791]
- IC50 [6]: 54 µM
- IC50 [7, 13]: 99 µM

Compound: O=C(NCCc1ncc(C(F)(F)F)cc1Cl)c1ccccc1C(F)(F)F [Fluopyram, reference compound]
- IC50 ([1]; Saccharomyces cerevisiae): > 1000 µM
- outcome after exposure / removal from drug (C. elegans VC2010 [10]): animals are killed
- IC50 ([6]; Homo sapiens): 300 µM
- IC50 [7, 15]: 0.05 µM

Compound: Ivermectin
- IC50 [1]: > 1000 µM
- IC50 [2]: 0.01 µM
- IC50 [3]: 7 µM
- IC50 [4]: 0.01 µM
- IC50 [5]: 0.01 µM
- IC50 [6]: 300 µM
- WormScan Score ([7]; 50 μM, five days exposure, normalized, DMSO control = 100): 0
- IC50 [7, 12]: 0.03 µM
- IC50 [7, 13]: 0.03 µM
- normalized WormScan score ([7]; normalized, DMSO control = 100): 0
- IC50 [8]: 0.01 µM
- IC50 [9]: 0.01 µM
- Worm Reaction in Drug (C. elegans VC2010 [11]): appears dead/paralyzed no progeny

Compound: CC(C)Oc1cccc(NC(=O)c2ccccc2C(F)(F)F)c1 [flutolanil]
- IC50 (A. suum complex II): 0.0245 µM
- IC50 (porcine complex II): 8.61 µM

Compound: CC1(C)SC2C(N)C(=O)N2C1C(=O)O (stereo not drawn) [WACT162]
- effect on nematodes (nematodes): only reduces growth

Compound: CCCCNC(=O)n1c(NC(=O)OC)nc2ccccc21 [Benomyl, reference compound]
- IC50 ([1]; Saccharomyces cerevisiae): 750 µM
- IC50 ([6]; Homo sapiens): 8 µM
- IC50 [7, 15]: 60 µM

- IC50 [1]: 20 µM
Compound: Cc1csc2sc(C(=O)CC(=O)C(F)(F)F)c(C)c12 [CID 2743002]
- IC50 [6]: 54 µM
- IC50 [7, 13]: > 500 µM

- IC50 ([2]; Caenorhabditis elegans, 120 h): 113 µM
- IC50 ([3]; Caenorhabditis elegans, 120 h): 59 µM
- IC50 ([4]; Caenorhabditis elegans, 120 h): > 1000 µM
- IC50 ([5]; Caenorhabditis elegans, 120 h): 28 µM
- IC50 ([8]; Caenorhabditis elegans, 120 h): 118 µM
- IC50 ([9]; Caenorhabditis elegans, 120 h): 91 µM
Compound: c1ccc2[nH]cnc2c1 [Benzimidazole]
- IC50 [7, 14]: 61 µM
